What all share (assay type): cell-based, human
In one data set the test system is Jurkat cells. The experiment in a line: Single-dose CCK-8 cell viability screening (suspension cells). To be noted: for viability at 50 µM: Homo sapiens, 48 h. The procedure:
(§1) In this example, the anti-cancer properties of the BB analogues described in Table 1d were evaluated. Single-dose screening approach is used for initial testing to assess the cytotoxic effect of the BB analogues (also referred to as ‘BB compounds’) on Jurkat cells (human T cell leukaemia cells) and A549 cells (human lung cancer cells).
Method for Suspension Cells (Jurkat Cells)
5000 cells/90 uL were seeded in 96-well plates. 10 uL of 500 uM compound (10×) was added to each well in 6 replicates. The following controls were prepared.
Blank control: 10 uL 1% DMSO in media with no cells per well.
Positive control: 10 uL of 100 uM 5-flurouracil (10×) per well.
Negative control: 10 uL of 1% DMSO in media (10×) per well.
Each 96-well plate included 7 BB analogues and the complete set of controls (in 6 replicates).
(§2) Cells were incubated at 37° C.+5% CO2 for 46 hours. 10 uL of CCK8 solution was added to each well. Cells were then incubated at 37° C.+5% CO2 for 2 hours. Absorbance at 450 nm was measured using a multiplate reader.
(§3) Viability was calculated using the equation: […]
(§4) The benchmark in Table 2 was used to define the activities of each compound.

Data set [1] can be described thus: Single-dose CCK-8 cell viability screening (adherent cells). Conditions: average of A549 and Jurkat % viability, 50 uM, 48 h; for viability at 50 µM: Homo sapiens. As to the method: as §1
(§5) Method for Adherent Cells (A549 Cells)
(§6) In this example, 5000 cells/100 uL were seeded in 96-well plates and incubate at 37° C.+5% CO2 overnight. Media were replaced with 100 uL of 50 uM compound per well in 6 replicates. The following controls were prepared.
(§7) Blank control: 100 uL 0.1% DMSO in media with no cells per well.
(§8) Positive control: 100 uL of 10 uM 5-flurouracil per well.
(§9) Negative control: 100 uL of 0.1% DMSO in media per well.
(§10) Each 96-well plate included 7 compounds and the complete set of controls (in 6 replicates).
as §2, §3, §4

In a further data set the test system is A549 cells. Described as above. Conditions: for viability at 50 µM: Homo sapiens. As to the method: as §1, §5, §6, §7, §8, §9, §10, §2, §3, §4
Where [2] appears, read: Jurkat, Jurkat cells, 50 uM, CCK-8, read-out: % Viability (50 uM, 48 h) Jurkat.
Where [3] appears, read: A549, 48 h, A549 cells, 50 uM, 48 h, CCK-8, read-out: % Viability (50 uM, 48 h) A549.
The mark [4] stands for this setting: Jurkat, read-out: % Viability (50 uM, 48 h) Jurkat.
Where [5] appears, read: A549, 48 h, read-out: % Viability (50 uM, 48 h) A549.

Read-outs that look alike come from different tables or passages of the source.

The term viability denotes a read-out of living cells in per cent, often relative to untreated cells. Consider `CC(C)(C)[C@]1(O)C[C@@H]2OC(=O)C[C@@]23C(=O)O[C@@H]2N(c4ccc(O)cc4)C(=O)[C@H](OC(=O)c4ccccc4)[C@]213` [JW103, (3aS,5aS,8R,9R,10aS)-9-(tert-butyl)-6-(4-hydroxyphenyl)-9-hydroxy-2,4,7-trioxodecahydrofuro [3″,2″:2′,3′]cyclopenta [1′,2′:3,4]furo [2,3-b]pyrrol-8-yl benzoate], for which the viability at 50 µM with Jurkat cells (setting [2]) came out at 82.2%; in data set [1] (A549, 48 h), 92.2%; with A549 cells (setting [3]), 102%.
Turning to `CC(C)(C)[C@]1(O)C[C@@H]2OC(=O)C[C@@]23C(=O)O[C@@H]2N(CC4CCN(C(=O)c5ccc6c(c5)OCCO6)CC4)C(=O)[C@H](OC(=O)c4ccccc4)[C@]213` [XBB-045, (3aS,5aS,8R,8aS,9R,10aS)-9-(tert-butyl)-6-((1-(2,3-dihydrobenzo[b][1,4]dioxine-6-carbonyl)piperidin-4-yl)methyl)-9-hydroxy-2,4,7-trioxooctahydro-4H,9H-furo [3″,2″:2′,3′]cyclopenta [1′,2′:3,4]furo[2,3-b]pyrrol-8-yl benzoate], the viability at 50 µM in the data set on Jurkat cells (setting [2]) came to 84.8%; in data set [1] (A549, 48 h), 85.9%; in the data set with A549 cells (setting [3]) it was 87%.
Turning to `CC(C)(C)[C@]1(O)C[C@@H]2OC(=O)C[C@@]23C(=O)O[C@@H]2N(N)C(=O)[C@H](O)[C@]213` [JW072, (3aS,5aS,8R,8aS,9R,10aS)-6-amino-9-(tert-butyl)-8,9-dihydroxytetrahydro-4H,9H-furo [3″,2″:2′,3′]cyclopenta [1′,2′:3,4]furo [2,3-b]pyrrole-2,4,7(3H,8H)-trione], the viability at 50 µM was 97.2% in the data set with Jurkat cells (Jurkat cells, 50 uM, CCK-8, read-out: % Viability (50 uM, 48 h) Jurkat); 100% in data set [1]; 103% in the data set with A549 cells (A549 cells, 50 uM, 48 h, CCK-8, read-out: % Viability (50 uM, 48 h) A549).
Turning to `CC(=O)Nc1ccc(N2C(=O)[C@H](OC(=O)c3ccccc3)[C@@]34[C@@H]2OC(=O)[C@@]32CC(=O)O[C@H]2C[C@@]4(O)C(C)(C)C)cc1` [XBB-035, (3aS,5aS,8R,8aS,9R,10aS)-6-(4-acetamidophenyl)-9-(tert-butyl)-9-hydroxy-2,4,7-trioxooctahydro-4H,9H-furo [3″,2″:2′,3′]cyclopenta [1′,2′:3,4]furo[2,3-b]pyrrol-8-yl benzoate], the viability at 50 µM was determined as 87% in the data set on Jurkat cells (setting [2]); 76.9% in data set [1] (A549, 48 h); 66.9% with A549 cells (setting [3]).
As to `Cc1c(CCN2C(=O)[C@H](OC(=O)c3ccccc3)[C@@]34[C@@H]2OC(=O)[C@@]32CC(=O)O[C@H]2C[C@@]4(O)C(C)(C)C)[nH]c2ccccc12` [XBB-029, (3aS,5aS,8R,8aS,9R,10aS)-9-(tert-butyl)-9-hydroxy-6-(2-(3-methyl-1H-indol-2-yl)ethyl)-2,4,7-trioxooctahydro-4H,9H-furo [3″,2″:2′,3′]cyclopenta[1′,2′:3,4]furo[2,3-b]pyrrol-8-yl benzoate], the viability at 50 µM with Jurkat cells (setting [2]) was 93.4%; in data set [1] (A549, 48 h) it was 94.8%; in the data set on A549 cells (setting [3]), 96.1%.
`COc1ccc(CN2C(=O)[C@H](OC(=O)c3ccccc3)[C@@]34[C@@H]2OC(=O)[C@@]32CC(=O)O[C@H]2C[C@@]4(O)C(C)(C)C)c(OC)c1` [XBB-018, (3aS,5aS,8R,8aS,9R,10aS)-6-(2,4-dimethoxy-benzyl-9-(tert-butyl)-9-hydroxy-2,4,7-trioxooctahydro-4H,9H-furo [3″,2″:2′,3′]cyclopenta [1′,2′:3,4]furo [2,3-b]pyrrol-8-yl benzoate]: the viability at 50 µM with Jurkat cells (setting [2]) was determined as 102%; in data set [1] (A549, 48 h) it was 94.5%; in the data set with A549 cells (setting [3]) it was 86.5%.
For `CC(C)(C)OC(=O)N1CCC(CCCN2C(=O)[C@H](OC(=O)c3ccccc3)[C@@]34[C@@H]2OC(=O)[C@@]32CC(=O)O[C@H]2C[C@@]4(O)C(C)(C)C)CC1` [XBB-025] the same measures were 83.3%, 91.7% and 100%.
`CC(C)(C)[C@]1(O)C[C@@H]2OC(=O)C[C@@]23C(=O)O[C@@H]2N(c4cccnc4)C(=O)[C@H](OC(=O)c4ccccc4)[C@]213` [XBB-040, (3aS,5aS,8R,8aS,9R,10aS)-9-(tert-butyl)-9-hydroxy-2,4,7-trioxo-6-(pyridin-3-yl)octahydro-4H,9H-furo [3″,2″:2′,3′]cyclopenta [1′,2′:3,4]furo [2,3-b]pyrrol-8-yl benzoate]: the viability at 50 µM in the data set with Jurkat cells (setting [4]) stood at 98.4%; in data set [1] (A549, 48 h) it was 99%; in the data set on A549 cells (setting [5]), 99.6%.
On to `COc1cccc(N2C(=O)[C@H](OC(=O)c3ccccc3)[C@@]34[C@@H]2OC(=O)[C@@]32CC(=O)O[C@H]2C[C@@]4(O)C(C)(C)C)c1` [JW092, (3aS,5aS,8R,9R,10aS)-9-(tert-butyl)-9-hydroxy-6-(3-methoxyphenyl)-2,4,7-trioxodecahydrofuro [3″,2″:2′,3′]cyclopenta [1′,2′:3,4]furo [2,3-b]pyrrol-8-yl benzoate], for which the viability at 50 µM with Jurkat cells (setting [2]) came out at 69.3%; in data set [1] (A549, 48 h) it was 61.5%; in the data set on A549 cells (setting [3]), 53.7%.
Take `CC(C)(C)[C@]1(O)C[C@@H]2OC(=O)C[C@@]23C(=O)O[C@@H]2N(c4ccccc4)C(=O)[C@H](OC(=O)c4ccccc4)[C@]213` [XBB-034, (3aS,5aS,8R,8aS,9R,10aS)-9-(tert-butyl)-9-hydroxy-2,4,7-trioxo-6-phenyloctahydro-4H,9H-furo[3″,2″:2′,3′]cyclopenta [1′,2′:3,4]furo[2,3-b]pyrrol-8-yl benzoate]: the viability at 50 µM with Jurkat cells (setting [4]) is 89.1%; in data set [1], 72.5%; in the data set with A549 cells (setting [5]), 56%.
Regarding `CC(C)(C)[C@]1(O)C[C@@H]2OC(=O)C[C@@]23C(=O)O[C@@H]2N(c4cccc5c4OCO5)C(=O)[C@H](OC(=O)c4ccccc4)[C@]213` [XBB-068], the viability at 50 µM in the data set on Jurkat cells (setting [2]) was 101%; in data set [1] (A549, 48 h) it was 97.5%; with A549 cells (setting [3]), 93.6%.
Taken in the same sequence, the figures for `CC(=O)O[C@H]1C(=O)NC(N)=N[C@H]2OC(=O)[C@]34CC(=O)O[C@H]3C=C(C(C)(C)C)[C@@]214` [XBB-073] were 107%, 86.5% and 66.5%.
For `COc1ccccc1N1C(=O)[C@H](OC(=O)c2ccccc2)[C@@]23[C@@H]1OC(=O)[C@@]21CC(=O)O[C@H]1C[C@@]3(O)C(C)(C)C` [JW095, (3aS,5aS,8R,9R,10aS)-9-(tert-butyl)-9-hydroxy-6-(2-methoxyphenyl)-2,4,7-trioxodecahydrofuro [3″,2″:2′,3′]cyclopenta [1′,2′:3,4]furo [2,3-b]pyrrol-8-yl benzoate] the same measures were 69%, 78.1% and 87.2%.
Consider `CC(C)(C)[C@]1(O)C[C@@H]2OC(=O)C[C@@]23C(=O)O[C@@H]2N(CCN4CCNCC4)C(=O)C(OC(=O)c4ccccc4)[C@]213` (stereo in doubt) [XBB-028, 4-(2-((3aS,5aS,8S,8aS,9R,10aS)-8-(benzoyloxy)-9-(tert-butyl)-9-hydroxy-2,4,7-trioxohexahydro-4H,9H-furo [3″,2″:2′,3′]cyclopenta [1′,2′:3,4]furo [2,3-b]pyrrol-6(5aH)-yl)ethyl)piperazin-1-ium chloride], for which the viability at 50 µM amounted to 90.5% in the data set on Jurkat cells (setting [2]); 89.7% in data set [1] (A549, 48 h); 88.8% in the data set with A549 cells (setting [3]).
Turning to `CC(C)(C)[C@]1(O)C[C@@H]2OC(=O)C[C@@]23C(=O)O[C@@H]2N(c4ccc(N)cc4)C(=O)[C@H](OC(=O)c4ccccc4)[C@]213` [XBB-037′], the “% Viability (50 uM, 48 h) Jurkat” value in the data set on Jurkat cells (Jurkat cells, 50 uM, CCK-8, 50 µM) came to 98.42%. Besides, the “Average (%)” value in data set [1] was determined as 104.22%. The “% Viability (50 uM, 48 h) A549” value in the data set with A549 cells (A549 cells, 50 uM, 48 h, CCK-8) is recorded as 110.02%.
As for `CC(=O)O[C@H]1C(=O)N[C@H]2OC(=O)[C@]34CC(=O)O[C@H]3C=C(C(C)(C)C)[C@@]214` [XBB-010, (3aS,5aS,8R,8aS,10aS)-9-(tert-butyl)-2,4,7-trioxo-2,3,5a,6,7,8-hexahydro-4H,10aH-furo[3″,2″:2′,3′]cyclopenta[1′,2′:3,4]furo[2,3-b]pyrrol-8-yl acetate], the viability at 50 µM was determined as 115% with Jurkat cells (Jurkat, read-out: % Viability (50 uM, 48 h) Jurkat, Jurkat cells, 50 uM, 48 h, CCK-8); 114% in data set [1] (A549, 48 h); 112% in the data set on A549 cells (A549, 48 h, read-out: % Viability (50 uM, 48 h) A549, A549 cells, 50 uM, 48 h, CCK-8).
